Here are results for one compound from US12180162B1, “2-amino-4-(4-bromophenyl)-6-methoxypyridine-3,5-dicarbonitrile as an antibacterial compound” (KING FAISAL UNIVERSITY, priority 2023, dated 2024).

Structures are written as SMILES. Read-outs that look alike come from different tables or passages of the source.

Holding throughout (test): Antibacterial screening, agar disc-diffusion method
Common to all, as to assay type: cell-based

Assay [1] relates to Staphylococcus aureus. Particulars: Gram positive, 6 mm disc, 10 μL of 10 mg/mL in DMSO, DMSO zone subtracted. The procedure: (§1) The antibacterial properties of the synthesized compound 2-amino-4-(4-bromophenyl)-6-methoxypyridine-3,5-dicarbonitrile were studied by the method of agar disc-diffusion method. Sterilized filter papers (6 mm in diameter) were wetted with 10 μL of a solution of 2-amino-4-(4-bromophenyl)-6-methoxypyridine-3,5-dicarbonitrile (3) to be tested, containing 10 mg/mL in DMSO, and the discs were allowed to air dry. The discs were then placed onto the surface of agar plates (nutrient agar for bacteria) seeded with the test organism. Each plate contained 15 mL of the agar medium, previously seeded with 0.2 mL of the broth culture of each organism pregrown for 18 hours. The inhibition zones was measured in mm. Discs impregnated with DMSO were used as a control, and its inhibition zone was subtracted from the tested compound actual inhibition zone. […] Their antibacterial screened against gram positive bacteria namely Bacillus cereus and Staphylococcus aureus and gram-negative bacterial strains namely Pseudomonas aeruginosa and Escherichia coli.

In assay [2] the test system is Bacillus Cereus. Particulars: Gram positive, 6 mm disc, 10 μL of 10 mg/mL in DMSO, DMSO zone subtracted. The procedure: as §1
Assay [3] deals with Pseudomonas aeruginosa. The note with it: Gram negative, 6 mm disc, 10 μL of 10 mg/mL in DMSO, DMSO zone subtracted. The protocol: as §1
Assay [4] concerns Escherichia coli. Particulars: Gram negative, 6 mm disc, 10 μL of 10 mg/mL in DMSO, DMSO zone subtracted. The protocol: as §1

`COc1nc(N)c(C#N)c(-c2ccc(Br)cc2)c1C#N` [Compound 3, 2-amino-4-(4-bromophenyl)-6-methoxypyridine-3,5-dicarbonitrile]: the zone of inhibition at 10000 µg/mL was found to be 18 mm in assay [1] (sub-column A (not defined), read-out: inhibition zone, Staphylococcus aureus, A); 27 mm in assay [1] (sub-column B (not defined), read-out: inhibition zone, Staphylococcus aureus, B); 33 mm in assay [1] (sub-column C (not defined), read-out: inhibition zone, Staphylococcus aureus, C); 32 mm in assay [2] (sub-column A (not defined), read-out: inhibition zone, Bacillus Cereus, A); 37 mm in assay [2] (sub-column B (not defined), read-out: inhibition zone, Bacillus Cereus, B); 40 mm in assay [2] (sub-column C (not defined), read-out: inhibition zone, Bacillus Cereus, C). Besides, the zone of inhibition at 10000 µg/mL in assay [3] (sub-column A (not defined), read-out: inhibition zone, Pseudomonas aeruginosa, A) came out at 24 mm; in assay [3] (sub-column B (not defined), read-out: inhibition zone, Pseudomonas aeruginosa, B) it was 34 mm; in assay [3] (sub-column C (not defined), read-out: inhibition zone, Pseudomonas aeruginosa, C), 39 mm; in assay [4] (sub-column A (not defined), read-out: inhibition zone, Escherichia coli, A), 39 mm; in assay [4] (sub-column B (not defined), read-out: inhibition zone, Escherichia coli, B) it was 41 mm; in assay [4] (sub-column C (not defined), read-out: inhibition zone, Escherichia coli, C), 46 mm.
